Data on seven compounds can be found in patent US20040131545A1, “Amyloid plaque aggregation inhibitors and diagnostic imaging agents” (Trustees of the University of Pennsylvania, priority 2001, published 2004).

The target in data set [1] is T1, aggregates of Aβ(1-40) (Homo sapiens, UniProt P05067).
T1 construct: The solid forms of peptides Aβ(1-40) and Aβ(1-42) were purchased; purchased Bachem (King of Prussia, Pa.)
Kind of data set: Inhibition of [125I]3 binding to aggregated Aβ(1-40) peptide in solution. The following applies: 25° C.; mean±SEM of three independent experiments; read-out: Inhibition constants (Ki) on ligand binding to aggregates of Aβ(1-40) vs [^125I]3. As to the method: (§1) The solid forms of peptides Aβ(1-40) and Aβ(1-42) were purchased from Bachem (King of Prussia, Pa.). Aggregation of peptides were carried out by gently dissolving the peptide [0.5 mg/mL for Aβ(1-40) and 0.25 mg/mL for Aβ (1-42) in a buffer solution (pH 7.4) containing 10 mM sodium phosphate and 1 mM EDTA. The solutions were incubated at 37° C. for 36-42 h with gentle and constant shaking. Binding studies were carried out in 12×75 mm borosilicate glass tubes according to the procedure described with some modifications (Klunk, W. E., et al., Biol. Psychiatry 35:627 (1994)). Aggregated fibrils (10-50 nM in the final assay mixture) were added to the mixture containing […] of radioligands (0.01-0.5 nM) in 40% EtOH and 10% EtOH in a final volume of 1 mL for saturation studies. […] For inhibition studies, 1 mL of the reaction mixture contained […] of inhibitors (10-5-10-10 M in 10% EtOH) and 0.05 nM radiotracer in 40% EtOH. The mixture was incubated at room temperature for 3 h and the bound and the free radioactivity were separated by vacuum filtration through Whatman GF/B filters using a Brandel M-24R cell harvester followed by 2×3 mL washes of 10% ethanol at room temperature. Filters containing the bound I-125 ligand were counted in a gamma counter (Packard 5000) with 70% counting efficiency. The results of saturation and inhibition experiments were subjected to nonlinear regression analysis using software EBDA52 by which Kd and Ki values were calculated.
(§2) Values are the mean±SEM of three independent experiments, each in duplicates.

The target of data set [2] is T2, aggregates of Aβ(1-42) (Homo sapiens, UniProt P05067).
T2 construct: The solid forms of peptides Aβ(1-40) and Aβ(1-42) were purchased; purchased Bachem (King of Prussia, Pa.)
T2 sequence (P05067 672-713 limits assumed): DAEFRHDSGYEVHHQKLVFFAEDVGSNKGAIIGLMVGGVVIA
The data set can be described thus: Inhibition of [125I]3 binding to aggregated Aβ(1-42) peptide in solution. The following applies: 25° C.; mean±SEM of three independent experiments; read-out: Inhibition constants (Ki) on ligand binding to aggregates of Aβ(1-42) vs [^125I]3. The protocol:
as §1, §2

The target in data set [3] is fibrillar AP aggregates (Homo sapiens, UniProt P05067). Conditions: Mathis et al. 1997; read-out: inhibition constants (K′) for binding to fibrillar AP aggregates; cited from earlier work.
Chain of fibrillar AP aggregates (P05067 672-711): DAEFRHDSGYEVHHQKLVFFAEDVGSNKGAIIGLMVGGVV
A short description of data set [4]: Partition coefficient determination (1-octanol/buffer). The data set is classed as physicochemical. Conditions: 1-octanol / 0.1 M phosphate buffer pH 7.4, [125I]tracer. As to the method:
The test tube was vortexed for 3 min at room temperature, followed by centrifugation for 5 min. Two weighed samples (0.5 g each) from the 1-octanol and buffer layers were counted in a well counter. The partition coefficient was determined by calculating the ratio of cpm/g of 1-octanol to that of buffer. Samples from the 1-octanol layer were re-partitioned until consistent partitions of coefficient values were obtained. The measurement was done in triplicate and repeated three times.

Data set [5] is described as follows: In vivo biodistribution in normal mice after iv injection. Set-up: species or system ICR mice. The following applies: for Initial brain uptake / time at which brain uptake peaked / maximum brain uptake: mice; for Initial brain uptake: after an iv injection; for time at which brain uptake peaked / maximum brain uptake / Blood / Brain / Heart / Liver: iv; for maximum brain uptake: peak at 60 min; for Blood / Brain / Heart / Liver: normal mice. As to the method: While under ether anesthesia, 0.15 mL of a saline solution containing labeled agents ([…]) was injected directly into the tail vein of ICR mice (2-3 month-old, average weight 20-30 g). The mice were sacrificed by cardiac excision at various time points post injection. The organs of interest were removed and weighed, and the radioactivity was counted with an automatic gamma counter (Packard 5000). The percentage dose per organ was calculated by a comparison of the tissue counts to suitably diluted aliquots of the injected material. Total activities of blood and muscle were calculated under the assumption that they were 7% and 40% of the total body weight, respectively.

T1 sequence (P05067 672-711 limits assumed): as the sequence (P05067 672-711) above

As to `O=C(O)c1cc(/N=N/c2ccc(-c3ccc(/N=N/c4ccc(O)c(C(=O)O)c4)cc3)cc2)ccc1O` [Chrysamine G, reference compound], the Ki in data set [1] was greater than 1000 nM; in data set [2] it was greater than 2000 nM; in data set [3] it was 370 nM.

For `CN(C)c1ccc(-c2nc3ccc(I)cc3s2)cc1` [Compound 3, 2-(4′-Dimethylaminophenyl)-6-iodobenzothiazole], the Ki in data set [1] turned out to be 0.9 ± 0.2 nM. Also, the Ki in data set [2] came to 2.2 ± 0.4 nM. Besides, the “Partition Coefficient (PC)” value in data set [4] came out at 70. Further, in data set [5], the Initial brain uptake stood at 0.67 % dose/organ, the “time at which brain uptake peaked” value worked out at 60 min and the maximum brain uptake came to 1.57 % dose/organ.

Turning to `CN1CCN(c2ccc(-c3nc4ccc(Br)cc4s3)cc2)CC1` [Compound 4, 2-[4′-(4″-Methylpiperazin-1-yl)-phenyl]-6-bromobenzothiazole], the Ki in data set [1] is 1.6 ± 0.5 nM; in data set [2], 5 ± 0.8 nM.

Regarding `CN(C)c1ccc(-c2nc3ccc([125I])cc3s2)cc1` [[^125I] Compound 3], the Blood is listed as 15.74 ± 6.06 % dose/organ in data set [5] (2 min); 3.26 ± 0.05 % dose/organ in data set [5] (30 min); 3.79 ± 0.19 % dose/organ in data set [5] (60 min (1 hr)); 1.44 ± 0.05 % dose/organ in data set [5] (6 h); 0.29 ± 0.09 % dose/organ in data set [5] (24 h). Besides, the Brain in data set [5] (2 min) is 0.67 ± 0.11 % dose/organ; in data set [5] (30 min), 0.97 ± 0.29 % dose/organ; in data set [5] (60 min (1 hr)), 1.57 ± 0.24 % dose/organ; in data set [5] (6 h), 0.65 ± 0.11 % dose/organ; in data set [5] (24 h), 0.04 ± 0.01 % dose/organ. Besides, the Heart in data set [5] (2 min) worked out at 1.79 ± 0.39 % dose/organ; in data set [5] (30 min) it was 0.20 ± 0.01 % dose/organ; in data set [5] (60 min (1 hr)), 0.17 ± 0.02 % dose/organ; in data set [5] (6 h), 0.05 ± 0.01 % dose/organ; in data set [5] (24 h) it was 0.01 ± 0.00 % dose/organ. Moreover, the Liver in data set [5] (2 min) worked out at 31.62 ± 2.38 % dose/organ; in data set [5] (30 min) it was 10.93 ± 2.34 % dose/organ; in data set [5] (60 min (1 hr)), 9.21 ± 3.05 % dose/organ; in data set [5] (6 h), 1.52 ± 0.30 % dose/organ; in data set [5] (24 h), 0.30 ± 0.07 % dose/organ.

On to `CN1CCN(c2ccc(-c3nc4ccc(I)cc4s3)cc2)CC1` [Compound 6a, 2-[4′-(4″-Methylpiperazin-1-yl)-phenyl]-6-iodobenzothiazole], for which the Ki in data set [1] is 5.4 ± 0.7 nM. The Ki in data set [2] was determined as 6.4 ± 0.7 nM. Also, in data set [4], the “Partition Coefficient (PC)” value was 312. For the same compound, in data set [5], the Initial brain uptake amounted to 1.50 % dose/organ, the “time at which brain uptake peaked” value was determined as 60 min and the maximum brain uptake came out at 1.89 % dose/organ.

`CN(C)c1ccc(-c2nc3ccc(Br)cc3s2)cc1` [Compound 1, 2-(4′-Dimethylaminophenyl)-6-bromobenzothiazole]: the Ki in data set [1] came to 1.9 ± 0.3 nM; in data set [2] it was 0.8 ± 0.3 nM.

Take `CN1CCN(c2ccc(-c3nc4ccc([125I])cc4s3)cc2)CC1` [[^125I] Compound 6a]: the Blood is recorded as 8.02 ± 0.82 % dose/organ in data set [5] (2 min); 5.15 ± 0.23 % dose/organ in data set [5] (30 min); 4.16 ± 0.28 % dose/organ in data set [5] (60 min (1 hr)); 1.49 ± 0.26 % dose/organ in data set [5] (6 h); 0.41 ± 0.09 % dose/organ in data set [5] (24 h). The Brain is recorded as 1.50 ± 0.10 % dose/organ in data set [5] (2 min); 1.59 ± 0.19 % dose/organ in data set [5] (30 min); 1.89 ± 0.43 % dose/organ in data set [5] (60 min (1 hr)); 1.08 ± 0.08 % dose/organ in data set [5] (6 h); 0.91 ± 0.08 % dose/organ in data set [5] (24 h). Also, the Heart in data set [5] (2 min) is 2.19 ± 0.43 % dose/organ; in data set [5] (30 min), 0.69 ± 0.02 % dose/organ; in data set [5] (60 min (1 hr)), 0.66 ± 0.06 % dose/organ; in data set [5] (6 h) it was 0.22 ± 0.06 % dose/organ; in data set [5] (24 h), 0.08 ± 0.01 % dose/organ. Further, the Liver in data set [5] (2 min) was 28.84 ± 3.77 % dose/organ; in data set [5] (30 min), 21.22 ± 5.86 % dose/organ; in data set [5] (60 min (1 hr)), 17.20 ± 2.49 % dose/organ; in data set [5] (6 h), 5.79 ± 1.24 % dose/organ; in data set [5] (24 h), 3.05 ± 0.87 % dose/organ.
